How the values were obtained:
[1] = target: Mitogen-activated protein kinase 10 (Homo sapiens, UniProt P53779); assay: Inhibition of JNK3 (unknown origin)
[2] = target: Phosphatidylinositol 4,5-bisphosphate 3-kinase catalytic subunit gamma isoform (Homo sapiens, UniProt P48736); assay: Inhibition of PI3Kgamma (unknown origin)
[3] = target: Glycogen synthase kinase-3 (Homo sapiens, UniProt P49840+P49841); assay: Inhibition of GSK3 (unknown origin); format: protein assay
[4] = target: Vascular endothelial growth factor receptor 2 (Homo sapiens, UniProt P35968); assay: Inhibition of KDR (unknown origin)
Vascular endothelial growth factor receptor 2, sequence (P35968 whole entry): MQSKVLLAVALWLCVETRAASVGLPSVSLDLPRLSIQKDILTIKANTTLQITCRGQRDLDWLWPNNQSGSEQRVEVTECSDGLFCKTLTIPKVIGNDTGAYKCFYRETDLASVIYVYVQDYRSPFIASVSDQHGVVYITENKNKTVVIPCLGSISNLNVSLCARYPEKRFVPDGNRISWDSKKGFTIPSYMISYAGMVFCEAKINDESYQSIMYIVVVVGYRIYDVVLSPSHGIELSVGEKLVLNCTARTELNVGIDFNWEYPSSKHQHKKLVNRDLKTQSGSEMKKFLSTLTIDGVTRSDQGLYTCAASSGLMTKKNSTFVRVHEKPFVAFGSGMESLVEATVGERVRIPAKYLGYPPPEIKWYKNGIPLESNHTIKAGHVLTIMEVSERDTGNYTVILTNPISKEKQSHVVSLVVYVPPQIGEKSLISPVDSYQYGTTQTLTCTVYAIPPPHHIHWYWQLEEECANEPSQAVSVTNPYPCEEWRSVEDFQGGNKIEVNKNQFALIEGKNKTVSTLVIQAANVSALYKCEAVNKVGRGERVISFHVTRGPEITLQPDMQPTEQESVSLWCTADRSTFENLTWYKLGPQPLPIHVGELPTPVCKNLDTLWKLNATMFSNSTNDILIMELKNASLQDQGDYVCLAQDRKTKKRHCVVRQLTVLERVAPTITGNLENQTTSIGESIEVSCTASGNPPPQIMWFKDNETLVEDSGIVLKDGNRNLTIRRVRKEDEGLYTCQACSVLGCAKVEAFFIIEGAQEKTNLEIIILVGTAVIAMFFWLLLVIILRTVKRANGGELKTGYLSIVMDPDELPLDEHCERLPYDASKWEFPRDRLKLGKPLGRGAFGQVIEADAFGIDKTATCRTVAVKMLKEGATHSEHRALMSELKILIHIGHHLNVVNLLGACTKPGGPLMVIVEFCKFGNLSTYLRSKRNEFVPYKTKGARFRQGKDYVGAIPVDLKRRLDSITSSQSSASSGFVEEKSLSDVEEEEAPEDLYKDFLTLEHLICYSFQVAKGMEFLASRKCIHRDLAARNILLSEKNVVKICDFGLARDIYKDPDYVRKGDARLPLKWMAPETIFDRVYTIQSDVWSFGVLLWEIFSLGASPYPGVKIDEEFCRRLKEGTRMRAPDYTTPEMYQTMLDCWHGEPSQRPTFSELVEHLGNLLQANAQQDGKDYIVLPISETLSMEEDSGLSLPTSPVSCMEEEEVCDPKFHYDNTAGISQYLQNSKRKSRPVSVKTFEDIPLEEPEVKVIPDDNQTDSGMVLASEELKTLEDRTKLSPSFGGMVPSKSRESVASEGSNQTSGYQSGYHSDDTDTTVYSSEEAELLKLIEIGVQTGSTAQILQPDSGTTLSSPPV

[5] = tested on: Influenza A virus; assay: Antiviral activity against influenza A virus A/PR/8/34 strain incubated with MDCK cells assessed as reduction of viral RNA level equal to 1% of control level after 72 hrs by branched DNA assay; format: functional, organism-based; details: A/Puerto Rico/8/1934(H1N1)
[6] = target: Hepatocyte growth factor receptor (Homo sapiens, UniProt P08581); assay: Inhibition of MET (unknown origin)
Hepatocyte growth factor receptor, sequence (P08581 whole entry): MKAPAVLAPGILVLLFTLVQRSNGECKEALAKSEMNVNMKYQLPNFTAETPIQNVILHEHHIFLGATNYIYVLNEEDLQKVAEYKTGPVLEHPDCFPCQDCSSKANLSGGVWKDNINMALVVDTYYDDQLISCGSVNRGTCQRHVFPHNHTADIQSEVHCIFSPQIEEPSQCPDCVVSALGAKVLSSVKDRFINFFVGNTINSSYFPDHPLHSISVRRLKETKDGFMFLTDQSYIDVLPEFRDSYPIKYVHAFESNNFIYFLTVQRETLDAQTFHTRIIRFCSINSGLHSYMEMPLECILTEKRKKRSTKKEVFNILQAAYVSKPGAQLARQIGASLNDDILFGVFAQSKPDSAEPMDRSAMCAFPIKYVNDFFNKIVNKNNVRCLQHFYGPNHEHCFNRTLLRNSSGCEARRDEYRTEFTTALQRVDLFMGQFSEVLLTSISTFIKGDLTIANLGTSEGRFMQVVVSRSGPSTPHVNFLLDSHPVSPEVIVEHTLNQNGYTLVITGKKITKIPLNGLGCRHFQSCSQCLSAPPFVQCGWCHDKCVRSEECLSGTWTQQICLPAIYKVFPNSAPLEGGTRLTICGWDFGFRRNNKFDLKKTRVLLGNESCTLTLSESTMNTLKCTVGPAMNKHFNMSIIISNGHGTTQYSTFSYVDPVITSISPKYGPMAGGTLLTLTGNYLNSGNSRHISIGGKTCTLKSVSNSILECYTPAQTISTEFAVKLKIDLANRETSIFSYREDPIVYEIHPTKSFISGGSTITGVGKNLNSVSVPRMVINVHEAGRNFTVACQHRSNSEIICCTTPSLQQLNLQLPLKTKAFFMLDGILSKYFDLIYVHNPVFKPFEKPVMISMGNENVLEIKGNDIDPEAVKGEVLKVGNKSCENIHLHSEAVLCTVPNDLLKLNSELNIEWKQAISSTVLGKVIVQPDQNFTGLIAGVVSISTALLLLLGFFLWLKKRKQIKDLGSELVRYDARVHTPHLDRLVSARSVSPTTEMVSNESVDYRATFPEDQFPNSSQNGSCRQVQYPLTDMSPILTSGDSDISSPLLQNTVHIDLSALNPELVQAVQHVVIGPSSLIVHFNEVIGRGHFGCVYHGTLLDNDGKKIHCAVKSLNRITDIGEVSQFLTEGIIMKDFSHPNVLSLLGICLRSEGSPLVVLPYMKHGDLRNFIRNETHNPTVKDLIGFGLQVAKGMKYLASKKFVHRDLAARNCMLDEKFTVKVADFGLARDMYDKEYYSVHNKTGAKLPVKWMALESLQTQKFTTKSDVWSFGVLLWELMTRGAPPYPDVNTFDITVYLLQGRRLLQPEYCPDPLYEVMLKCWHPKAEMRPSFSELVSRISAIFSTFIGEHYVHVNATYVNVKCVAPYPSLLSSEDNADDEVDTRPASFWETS

[7] = target: T1, Interleukin-1 receptor-associated kinase 4 (Homo sapiens, UniProt Q9NWZ3); assay: Inhibition of IRAK4 (unknown origin)
T1 sequence (Q9NWZ3 whole entry): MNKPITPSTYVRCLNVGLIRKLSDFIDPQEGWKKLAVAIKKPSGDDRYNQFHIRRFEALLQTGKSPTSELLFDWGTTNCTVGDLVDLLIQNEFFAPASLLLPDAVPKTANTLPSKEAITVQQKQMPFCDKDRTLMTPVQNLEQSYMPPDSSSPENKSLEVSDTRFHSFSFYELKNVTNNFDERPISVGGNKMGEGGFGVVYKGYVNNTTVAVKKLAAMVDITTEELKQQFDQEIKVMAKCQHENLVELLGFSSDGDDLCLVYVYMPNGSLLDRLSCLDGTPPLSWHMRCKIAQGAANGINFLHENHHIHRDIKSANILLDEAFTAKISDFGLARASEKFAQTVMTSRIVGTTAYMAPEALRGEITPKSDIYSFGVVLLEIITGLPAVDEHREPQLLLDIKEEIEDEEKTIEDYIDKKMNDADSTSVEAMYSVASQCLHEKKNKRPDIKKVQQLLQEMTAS

[8] = target: T2, Phosphatidylinositol 4,5-bisphosphate 3-kinase catalytic subunit delta isoform (Homo sapiens, UniProt O00329); assay: Inhibition of PI3Kdelta (unknown origin)
T2 sequence (O00329 whole entry): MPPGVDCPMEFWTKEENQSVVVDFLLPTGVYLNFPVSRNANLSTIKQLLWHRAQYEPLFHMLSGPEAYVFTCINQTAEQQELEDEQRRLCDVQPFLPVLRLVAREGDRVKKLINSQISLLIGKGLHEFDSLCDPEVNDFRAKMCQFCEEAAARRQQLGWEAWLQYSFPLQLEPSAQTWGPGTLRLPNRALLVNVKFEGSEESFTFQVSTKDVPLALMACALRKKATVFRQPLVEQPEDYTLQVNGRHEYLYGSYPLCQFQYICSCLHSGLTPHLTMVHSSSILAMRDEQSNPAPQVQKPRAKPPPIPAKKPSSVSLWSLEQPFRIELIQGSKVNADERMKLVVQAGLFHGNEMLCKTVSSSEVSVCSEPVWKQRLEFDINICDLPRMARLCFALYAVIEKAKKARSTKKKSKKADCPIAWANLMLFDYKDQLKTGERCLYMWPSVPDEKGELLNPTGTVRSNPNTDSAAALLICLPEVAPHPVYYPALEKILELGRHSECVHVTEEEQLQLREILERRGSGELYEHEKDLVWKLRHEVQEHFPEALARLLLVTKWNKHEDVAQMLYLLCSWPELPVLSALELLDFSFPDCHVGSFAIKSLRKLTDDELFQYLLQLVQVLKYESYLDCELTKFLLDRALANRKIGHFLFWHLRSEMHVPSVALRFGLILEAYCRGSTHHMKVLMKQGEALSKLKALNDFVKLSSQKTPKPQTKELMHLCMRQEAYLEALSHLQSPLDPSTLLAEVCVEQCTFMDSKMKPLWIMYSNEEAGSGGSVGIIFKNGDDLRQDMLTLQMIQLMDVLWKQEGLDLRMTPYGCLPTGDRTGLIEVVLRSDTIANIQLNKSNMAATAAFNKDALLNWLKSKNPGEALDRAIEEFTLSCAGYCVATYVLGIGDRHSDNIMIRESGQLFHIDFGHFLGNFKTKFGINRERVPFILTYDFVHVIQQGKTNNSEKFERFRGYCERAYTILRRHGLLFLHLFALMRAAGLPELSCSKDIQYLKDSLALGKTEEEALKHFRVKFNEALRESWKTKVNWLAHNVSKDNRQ

[9] = target: Tyrosine-protein kinase JAK2 (Homo sapiens, UniProt O60674); assay: Inhibition of JAK2 (unknown origin)
[10] = target: Phosphatidylinositol 4,5-bisphosphate 3-kinase catalytic subunit beta isoform (Homo sapiens, UniProt P42338); assay: Inhibition of PI3Kbeta (unknown origin)
[11] = target: Tyrosine-protein kinase SYK (Homo sapiens, UniProt P43405); assay: Inhibition of SYK (unknown origin)
[12] = target: Rho-associated protein kinase (Homo sapiens, UniProt O75116+Q13464); assay: Inhibition of ROCK (unknown origin); format: protein-complex assay
[13] = target: Cyclin-dependent kinase 2 (Homo sapiens, UniProt P24941); assay: Inhibition of CDK2 (unknown origin)
[14] = tested on: Influenza A virus; assay: Antiviral activity against Influenza A virus A/PR/8/34 strain incubated with MDCK cells assessed as cell protection after 72 hrs by phenotypic cell protection assay; format: functional, organism-based; details: A/Puerto Rico/8/1934(H1N1)
[15] = target: Phosphatidylinositol 4,5-bisphosphate 3-kinase catalytic subunit alpha isoform (Homo sapiens, UniProt P42336); assay: Inhibition of PI3Kalpha (unknown origin)
Phosphatidylinositol 4,5-bisphosphate 3-kinase catalytic subunit alpha isoform, sequence (P42336 whole entry, canonical isoform): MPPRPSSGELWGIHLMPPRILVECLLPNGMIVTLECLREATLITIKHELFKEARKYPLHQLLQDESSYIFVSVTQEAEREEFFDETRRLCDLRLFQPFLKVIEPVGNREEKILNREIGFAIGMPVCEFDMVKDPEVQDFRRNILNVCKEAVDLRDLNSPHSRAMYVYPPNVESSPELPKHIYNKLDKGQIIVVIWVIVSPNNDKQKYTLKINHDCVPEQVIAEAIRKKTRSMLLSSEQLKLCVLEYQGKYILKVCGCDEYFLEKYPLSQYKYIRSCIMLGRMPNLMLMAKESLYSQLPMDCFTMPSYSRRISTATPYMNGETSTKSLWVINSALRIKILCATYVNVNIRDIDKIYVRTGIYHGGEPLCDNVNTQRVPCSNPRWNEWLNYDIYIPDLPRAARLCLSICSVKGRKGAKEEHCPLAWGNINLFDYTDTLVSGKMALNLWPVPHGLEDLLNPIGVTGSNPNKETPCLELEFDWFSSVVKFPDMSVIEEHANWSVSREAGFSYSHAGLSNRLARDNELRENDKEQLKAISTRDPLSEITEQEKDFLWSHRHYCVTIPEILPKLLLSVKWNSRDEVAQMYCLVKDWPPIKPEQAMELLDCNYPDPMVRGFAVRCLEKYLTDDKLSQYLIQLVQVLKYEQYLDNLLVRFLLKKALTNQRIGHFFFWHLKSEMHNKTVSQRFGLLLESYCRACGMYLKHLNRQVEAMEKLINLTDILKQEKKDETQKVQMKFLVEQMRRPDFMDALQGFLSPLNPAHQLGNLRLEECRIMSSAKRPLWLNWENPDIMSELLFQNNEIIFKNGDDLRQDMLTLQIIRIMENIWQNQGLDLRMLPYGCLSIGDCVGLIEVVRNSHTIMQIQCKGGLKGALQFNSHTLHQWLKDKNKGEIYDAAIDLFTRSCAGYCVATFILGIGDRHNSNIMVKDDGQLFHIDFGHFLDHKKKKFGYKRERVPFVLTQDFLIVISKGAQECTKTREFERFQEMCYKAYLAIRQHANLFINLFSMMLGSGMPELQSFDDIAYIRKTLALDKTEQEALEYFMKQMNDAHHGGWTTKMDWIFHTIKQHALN

[16] = target: Serine/threonine-protein kinase PLK1 (Homo sapiens, UniProt P53350); assay: Inhibition of PLK (unknown origin)
[17] = target: T3, Receptor-type tyrosine-protein kinase FLT3 (Homo sapiens, UniProt P36888); assay: Inhibition of FLT3 (unknown origin)
T3 sequence (P36888 whole entry): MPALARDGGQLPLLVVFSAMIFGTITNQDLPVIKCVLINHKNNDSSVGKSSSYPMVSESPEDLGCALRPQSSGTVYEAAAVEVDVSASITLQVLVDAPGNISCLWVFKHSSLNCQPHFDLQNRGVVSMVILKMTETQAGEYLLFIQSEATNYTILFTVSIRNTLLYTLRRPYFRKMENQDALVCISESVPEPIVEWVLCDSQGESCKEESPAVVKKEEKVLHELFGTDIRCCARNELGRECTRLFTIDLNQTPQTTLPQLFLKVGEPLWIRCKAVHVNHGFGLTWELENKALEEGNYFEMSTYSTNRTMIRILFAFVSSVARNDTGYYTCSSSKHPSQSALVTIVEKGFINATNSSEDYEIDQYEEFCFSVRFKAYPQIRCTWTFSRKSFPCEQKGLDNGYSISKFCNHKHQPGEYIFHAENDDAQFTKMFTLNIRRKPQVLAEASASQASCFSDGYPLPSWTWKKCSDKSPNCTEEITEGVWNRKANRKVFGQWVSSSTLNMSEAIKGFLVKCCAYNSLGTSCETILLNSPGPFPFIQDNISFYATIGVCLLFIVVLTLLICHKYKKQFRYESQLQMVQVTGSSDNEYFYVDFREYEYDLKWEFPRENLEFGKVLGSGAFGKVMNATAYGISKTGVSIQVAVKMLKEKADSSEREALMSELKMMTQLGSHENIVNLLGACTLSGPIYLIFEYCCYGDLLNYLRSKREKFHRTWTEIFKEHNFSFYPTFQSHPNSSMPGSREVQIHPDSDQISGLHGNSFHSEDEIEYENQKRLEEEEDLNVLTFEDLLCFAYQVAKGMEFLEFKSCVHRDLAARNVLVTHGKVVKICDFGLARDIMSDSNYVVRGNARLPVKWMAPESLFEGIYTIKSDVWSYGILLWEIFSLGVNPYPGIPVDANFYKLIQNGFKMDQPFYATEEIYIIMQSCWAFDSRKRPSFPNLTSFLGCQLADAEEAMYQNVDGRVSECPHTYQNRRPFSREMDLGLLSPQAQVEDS

[18] = target: Proto-oncogene tyrosine-protein kinase Src (Homo sapiens, UniProt P12931); assay: Inhibition of SRC (unknown origin)
Proto-oncogene tyrosine-protein kinase Src, sequence (P12931 2-536 limits assumed): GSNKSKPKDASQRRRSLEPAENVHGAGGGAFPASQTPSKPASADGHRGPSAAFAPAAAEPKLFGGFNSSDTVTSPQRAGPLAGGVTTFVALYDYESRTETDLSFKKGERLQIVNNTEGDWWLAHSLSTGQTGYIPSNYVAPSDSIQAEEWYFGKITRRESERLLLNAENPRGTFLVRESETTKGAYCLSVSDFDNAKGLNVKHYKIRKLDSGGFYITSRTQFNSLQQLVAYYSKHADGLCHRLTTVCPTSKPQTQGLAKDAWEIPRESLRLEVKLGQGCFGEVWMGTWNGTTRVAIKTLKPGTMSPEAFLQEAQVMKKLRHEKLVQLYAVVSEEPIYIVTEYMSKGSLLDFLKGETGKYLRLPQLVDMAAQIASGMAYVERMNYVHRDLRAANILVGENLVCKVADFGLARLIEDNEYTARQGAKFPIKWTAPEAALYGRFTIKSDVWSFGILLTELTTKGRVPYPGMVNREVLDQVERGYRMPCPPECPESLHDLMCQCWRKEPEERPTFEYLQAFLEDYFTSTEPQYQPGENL

[19] = target: cAMP-dependent protein kinase catalytic subunit alpha (Homo sapiens, UniProt P17612); assay: Inhibition of PKAa (unknown origin)

Mitogen-activated protein kinase 10, sequence (P53779 whole entry, canonical isoform): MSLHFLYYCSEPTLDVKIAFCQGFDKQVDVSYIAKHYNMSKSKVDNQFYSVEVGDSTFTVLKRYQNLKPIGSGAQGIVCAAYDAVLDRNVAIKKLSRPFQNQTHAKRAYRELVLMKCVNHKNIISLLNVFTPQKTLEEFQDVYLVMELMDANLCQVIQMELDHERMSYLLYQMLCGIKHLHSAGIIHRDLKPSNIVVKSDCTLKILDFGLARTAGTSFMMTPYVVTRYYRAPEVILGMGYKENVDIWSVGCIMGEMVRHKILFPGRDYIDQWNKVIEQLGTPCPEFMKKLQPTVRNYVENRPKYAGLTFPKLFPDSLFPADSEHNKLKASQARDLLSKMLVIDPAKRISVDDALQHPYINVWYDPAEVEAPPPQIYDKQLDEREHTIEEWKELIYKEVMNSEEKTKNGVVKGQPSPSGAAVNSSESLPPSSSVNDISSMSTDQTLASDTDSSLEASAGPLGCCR

Compound | Ki [1] | Ki [2] | Ki [3] | Ki [4] | EC50 [5] | EC99 [5] | Ki [6] | Ki [7] | Ki [8] | Ki [9] | Ki [10] | Ki [11] | Ki [12] | Ki [13] | IC50 [14] | Ki [15] | Ki [16] | Ki [17] | Ki [18] | Ki [19]
NS(=O)(=O)[C@H]1C2CCC(CC2)[C@@H]1Nc1nc(-c2c[nH]c3ncc(F)cc23)ncc1F (mixture of isomers) | > 4000 nM | 1100 nM | 85 nM | 1900 nM | 6 nM | 0.064 µM | > 4000 nM | > 4000 nM | 1900 nM | 840 nM | > 4000 nM | > 4000 nM | 980 nM | > 4000 nM | 6 nM | > 4000 nM | 2100 nM | 1200 nM | 3100 nM | 490 nM
Cc1nnc([C@H]2C3CCC(CC3)[C@@H]2Nc2nc(-c3c[nH]c4ncc(F)cc34)ncc2F)o1 (mixture of isomers) | > 4000 nM | 2800 nM | 1100 nM | > 4000 nM | 170 nM | 1.9 µM | > 4000 nM | > 4000 nM | 1200 nM | > 4000 nM | > 4000 nM | > 4000 nM | > 4000 nM | > 4000 nM | 130 nM | > 4000 nM | > 4000 nM | 1800 nM | > 4000 nM | > 4000 nM
O=P(O)(O)[C@H]1C2CCC(CC2)[C@@H]1Nc1nc(-c2c[nH]c3ncc(F)cc23)ncc1F (mixture of isomers) | > 4000 nM | > 4000 nM | > 4000 nM | > 4000 nM | 51 nM | 0.29 µM | > 4000 nM | > 4000 nM | > 4000 nM | > 4000 nM | > 4000 nM | > 4000 nM | > 4000 nM | > 4000 nM | 91 nM | > 4000 nM | > 4000 nM | 1100 nM | > 4000 nM | > 4000 nM
CC(=O)NS(=O)(=O)[C@H]1C2CCC(CC2)[C@@H]1Nc1nc(-c2c[nH]c3ncc(F)cc23)ncc1F (mixture of isomers) | > 4000 nM | 1500 nM | 310 nM | > 4000 nM | 9 nM | 0.16 µM | > 4000 nM | > 4000 nM | > 4000 nM | > 4000 nM | > 4000 nM | > 4000 nM | > 4000 nM | > 4000 nM | 19 nM | > 4000 nM | > 4000 nM | 2800 nM | > 4000 nM | > 4000 nM
CS(=O)(=O)[C@H]1C2CCC(CC2)[C@@H]1Nc1nc(-c2c[nH]c3ncc(F)cc23)ncc1F (mixture of isomers) | > 4000 nM | 1200 nM | 77 nM | 1500 nM | 2 nM | 2.2 µM | > 4000 nM | > 4000 nM | 3300 nM | 740 nM | > 4000 nM | > 4000 nM | 2700 nM | > 4000 nM | 230 nM | > 4000 nM | > 4000 nM | 840 nM | 3100 nM | 1500 nM
Fc1cnc2[nH]cc(-c3ncc(F)c(N[C@H]4C5CCC(CC5)[C@@H]4c4nnn[nH]4)n3)c2c1 (mixture of isomers) | > 4000 nM | 2900 nM | > 4000 nM | > 4000 nM | 38 nM | 0.18 µM | > 4000 nM | > 4000 nM | > 4000 nM | > 4000 nM | > 4000 nM | > 4000 nM | > 4000 nM | > 4000 nM | 25 nM | 1800 nM | > 4000 nM | > 4000 nM | > 4000 nM | > 4000 nM
CC(O)[C@H]1C2CCC(CC2)[C@@H]1Nc1nc(-c2c[nH]c3ncc(F)cc23)ncc1F (mixture of isomers) | > 4000 nM | 780 nM | 66 nM | 2000 nM | 490 nM | > 3.1 µM | > 4000 nM | 3300 nM | > 4000 nM | 240 nM | > 4000 nM | > 4000 nM | 310 nM | 1200 nM | 310 nM | > 4000 nM | 1000 nM | 150 nM | 970 nM | > 4000 nM
Oc1cc([C@H]2C3CCC(CC3)[C@@H]2Nc2nc(-c3c[nH]c4ncc(F)cc34)ncc2F)no1 (mixture of isomers) | > 4000 nM | 750 nM | 60 nM | > 4000 nM | 11 nM | 0.062 µM | > 4000 nM | > 4000 nM | > 4000 nM | 200 nM | > 4000 nM | > 4000 nM | > 4000 nM | > 4000 nM | 72 nM | 880 nM | 1000 nM | 800 nM | > 4000 nM | 590 nM

— ChEMBL document CHEMBL3399966, “Isosteric replacements of the carboxylic acid of drug candidate VX-787: Effect of charge on antiviral potency and kinase activity of azaindole-based influenza PB2 inhibitors” (Bioorg Med Chem Lett, 2015)
